Among the data in patent US10322191B2, “Targeted conjugates and particles and formulations thereof” (TARVEDA THERAPEUTICS, INC., priority 2014, dated 2019) are IC50 values, retold here.

This test concerns NCI-H524 (ATCC) human lung cancer cells. In kind it is cell-based. Here is the method: Conjugates were assessed in an in vitro assay evaluating inhibition of cell proliferation. NCI-H524 (ATCC) human lung cancer cells were plated in 96 well, V-bottomed plates (Costar) at a concentration of 5,000 cells/well and 24 hours later were treated with compound for 2 hours and further incubated 70 hours. Compound starting dose was 20 μM and three-fold serial dilutions were done for a total of ten points. After 2 hours of treatment, cells were spun down, the drug containing media was removed, and fresh complete medium was added and used to resuspend the cells, which were spun again. After removal of the wash media, the cells were resuspended in complete medium, then transferred into white walled, flat bottomed 96 well plates. […] Proliferation was measured using CellTiter Glo reagent using the standard protocol (Promega) and a Glomax multi+detection system (Promega). Percent proliferation inhibition was calculated using the following formula: % inhibition=(control-treatment)/control*100. Control is defined as vehicle alone. IC50 curves were generated using the nonlinear regression analysis (four parameter) with GraphPad Prism 6.
Conjugates of the present invention were assessed in an in vitro assay evaluating inhibition of cell proliferation. NCI-H524 (ATCC) human lung cancer cells were plated in 96 well, V-bottomed plates (Costar) at a concentration of 5,000 cells/well. 24 hours later, cells were treated with either conjugate for 2 hours and further incubated 70 hours, or for octreotide competition experiments, treated with 100 μM octreotide for 30 min, and then treated with conjugate for 2 hours, and further incubated for 70 hours. Conjugate starting dose was 20 μM and three fold serial dilutions were done for a total of ten points. After 2 hours of treatment, cells were spun down, the drug containing media was removed, and fresh complete medium was added and used to resuspend the cells, which were spun again. After removal of the wash media, the cells were resuspended in complete medium, then transferred into white walled, flat bottomed 96 well plates. […] Proliferation was measured using CellTiter Glo reagent using the standard protocol (Promega) and a Glomax multi+detection system (Promega). Percent proliferation inhibition was calculated using the following formula: % inhibition=(control-treatment)/control*100. Control is defined as vehicle alone. IC50 curves were generated using the nonlinear regression analysis (four parameter) with GraphPad Prism 6.
Conjugates of the present invention were tested for their activity dependence on the somatostatin receptor. Active agent Z in the conjugate was selected from auristatin, carbazitaxel, DM1, doxorubicin, platinum, SN-38 and vinblastine. Active agent Z is connected to octreotide with various linkers. Proliferation IC50 values of the conjugates were measured. Proliferation IC50 values of the conjugates without octreotide competition were also measured. The ratio of IC50 with octreotide competition and IC50 without octreotide competition is an indicator of whether activity is at least partially dependent on bind to the somatostatin receptor.

Setting [1] is: Table 6, treated 2 hours, further incubated 70 hours, read-out: H524 IC50.
Setting [2] is: read-out: H524 IC50 + 100 μM octreotide, Table 6, with octreotide competition.
[3] abbreviates: read-out: H524 IC50+ 100 uM octreotide, Table 15, 100 μM octreotide for 30 min, then conjugate 2 hours, 70 hours incubation.
Setting [4] is: Table 15, treated 2 hours, further incubated 70 hours, read-out: H524 IC50.

By IC50 is commonly meant the concentration that inhibits the measured activity by half.

Like-named read-outs stand apart in the source and are kept apart here. Bridge positions count the residues as written; N and C are the ends. Square brackets hold non-standard residues; d marks the D form. Peptide text beside a SMILES is read from it. * marks the point of attachment. X1 = COc1cc2cc(c1Cl)N(C)C(=O)C[C@H](OC(=O)[C@H](C)N(C)C(=O)CCS*)[C@]1(C)O[C@H]1[C@H](C)[C@@H]1C[C@@](O)(NC(=O)O1)[C@H](OC)/C=C/C=C(\C)C2; Thr(ol) = C[C@@H](O)[C@H](N)CO

Turning to `CC[C@H](C)[C@@H]([C@@H](CC(=O)N1CCC[C@H]1[C@H](OC)[C@@H](C)C(=O)N[C@H](C)[C@@H](O)c1ccccc1)OC)N(C)C(=O)[C@@H](NC(=O)[C@H](C(C)C)N(C)C(=O)OCc1ccc(NC(=O)[C@H](CCCNC(N)=O)NC(=O)[C@@H](NC(=O)CCCCCN2C(=O)CC(SCCC(=O)N[C@H](Cc3ccccc3)C(=O)N[C@H]3CSSC[C@@H](C(=O)N[C@H](CO)[C@@H](C)O)NC(=O)[C@H]([C@@H](C)O)NC(=O)[C@H](CCCCN)NC(=O)[C@@H](Cc4c[nH]c5ccccc45)NC(=O)[C@H](Cc4ccccc4)NC3=O)C2=O)C(C)C)cc1)C(C)C` (stereo partly shown) [Conjugate 5], the IC50 amounted to 433 nM under setting [1] and 826 nM under setting [2].
On to `COc1cc2cc(c1Cl)N(C)C(=O)C[C@H](OC(=O)[C@H](C)N(C)C(=O)CCSSCCC(=O)NCCOCCOCCOCCOCCOCCOCCOCCOCCC(=O)N[C@H](Cc1ccccc1)C(=O)N[C@H]1CSSC[C@@H](C(=O)N[C@H](CO)[C@@H](C)O)NC(=O)[C@H]([C@@H](C)O)NC(=O)[C@H](CCCCN)NC(=O)[C@@H](Cc3c[nH]c4ccccc34)NC(=O)[C@H](Cc3ccccc3)NC1=O)[C@]1(C)O[C@H]1[C@H](C)[C@@H]1C[C@@](O)(NC(=O)O1)[C@H](OC)/C=C/C=C(\C)C2` [Conjugate 6], for which the IC50 is, setting by setting: under setting [1], 234 nM; under setting [2], 629 nM; under setting [3], 629 nM.
For the compound `COc1cc2cc(c1Cl)N(C)C(=O)C[C@H](OC(=O)[C@H](C)N(C)C(=O)CCSSC[C@H](N)C(=O)N[C@@H](CCCCN)C(=O)N[C@@H](CCCCN)C(=O)N[C@@H](CCCCN)C(=O)N[C@@H](CCCCN)C(=O)N[C@H](Cc1ccccc1)C(=O)N[C@H]1CSSC[C@@H](C(=O)N[C@H](CO)[C@@H](C)O)NC(=O)[C@H]([C@@H](C)O)NC(=O)[C@H](CCCCN)NC(=O)[C@@H](Cc3c[nH]c4ccccc34)NC(=O)[C@H](Cc3ccccc3)NC1=O)[C@]1(C)O[C@H]1[C@H](C)[C@@H]1C[C@@](O)(NC(=O)O1)[C@H](OC)/C=C/C=C(\C)C2` [Conjugate 7] (H-C(X1)KKKK[dF]CF[dW]KTC[Thr(ol)]; disulfide 7-12), the IC50 is 955 nM under setting [1], 1770 nM under setting [2] and 1770 nM under setting [3].
On to `COc1cc2cc(c1Cl)N(C)C(=O)C[C@H](OC(=O)[C@H](C)N(C)C(=O)CCSC1CC(=O)N(CCCNC(=O)CC[C@H]3C(=O)N[C@@H](Cc4ccc(O)cc4)C(=O)N[C@H](Cc4c[nH]c5ccccc45)C(=O)N[C@@H](CCCCN)C(=O)N[C@@H]([C@@H](C)O)C(=O)N[C@@H](Cc4ccccc4)C(=O)N3C)C1=O)[C@]1(C)O[C@H]1[C@H](C)[C@@H]1C[C@@](O)(NC(=O)O1)[C@H](OC)/C=C/C=C(\C)C2` (stereo partly shown) [Conjugate 12], for which the half-maximal inhibitory concentration (IC50) by setting is: under setting [4], 1680 nM; under setting [3], 2340 nM.
For `COc1cc2cc(c1Cl)N(C)C(=O)C[C@H](OC(=O)[C@H](C)N(C)C(=O)CCSSCCC(=O)N1CCN(C(=O)CC[C@H]3C(=O)N[C@@H](Cc4ccc(O)cc4)C(=O)N[C@H](Cc4c[nH]c5ccccc45)C(=O)N[C@@H](CCCCN)C(=O)N[C@@H]([C@@H](C)O)C(=O)N[C@@H](Cc4ccccc4)C(=O)N3C)CC1)[C@]1(C)O[C@H]1[C@H](C)[C@@H]1C[C@@](O)(NC(=O)O1)[C@H](OC)/C=C/C=C(\C)C2` [Conjugate 26] the same measures were 787 nM and 1160 nM.
Take `COc1cc2cc(c1Cl)N(C)C(=O)C[C@H](OC(=O)[C@H](C)N(C)C(=O)CCSSC1CCN(C(=O)CC[C@H]3C(=O)N[C@@H](Cc4ccc(O)cc4)C(=O)N[C@H](Cc4c[nH]c5ccccc45)C(=O)N[C@@H](CCCCN)C(=O)N[C@@H]([C@@H](C)O)C(=O)N[C@@H](Cc4ccccc4)C(=O)N3C)CC1)[C@]1(C)O[C@H]1[C@H](C)[C@@H]1C[C@@](O)(NC(=O)O1)[C@H](OC)/C=C/C=C(\C)C2` [Conjugate 28]: the IC50 reads like this: under setting [4], 669 nM; under setting [3], 1000 nM.
In the case of `COc1cc2cc(c1Cl)N(C)C(=O)C[C@H](OC(=O)[C@H](C)N(C)C(=O)CCSSCC(=O)NCCNC(=O)CC[C@H]1C(=O)N[C@@H](Cc3ccc(O)cc3)C(=O)N[C@H](Cc3c[nH]c4ccccc34)C(=O)N[C@@H](CCCCN)C(=O)N[C@@H]([C@@H](C)O)C(=O)N[C@@H](Cc3ccccc3)C(=O)N1C)[C@]1(C)O[C@H]1[C@H](C)[C@@H]1C[C@@](O)(NC(=O)O1)[C@H](OC)/C=C/C=C(\C)C2` [Conjugate 30], the IC50 by setting is: under setting [4], 470 nM; under setting [3], 2020 nM.
As to `COc1cc2cc(c1Cl)N(C)C(=O)C[C@H](OC(=O)[C@H](C)N(C)C(=O)CCSSCCNC(=O)[C@@H](NC(=O)[C@@H]1CSSC[C@H](NC(=O)[C@H](N)Cc3ccccc3)C(=O)N[C@@H](Cc3csc4ccccc34)C(=O)N[C@H](Cc3c[nH]c4ccccc34)C(=O)N[C@@H](CCCCN)C(=O)N[C@@H]([C@@H](C)O)C(=O)N1)[C@@H](C)O)[C@]1(C)O[C@H]1[C@H](C)[C@@H]1C[C@@](O)(NC(=O)O1)[C@H](OC)/C=C/C=C(\C)C2` [Conjugate 37], the IC50 was 44 nM under setting [4] and 166 nM under setting [3].
For `COc1cc2cc(c1Cl)N(C)C(=O)C[C@H](OC(=O)[C@H](C)N(C)C(=O)CCSSCCC(=O)NCCNC(=O)[C@@H](NC(=O)[C@@H]1CSSC[C@H](NC(=O)[C@H](N)Cc3ccccc3)C(=O)N[C@@H](Cc3ccc(O)cc3)C(=O)N[C@H](Cc3c[nH]c4ccccc34)C(=O)N[C@@H](CCCCN)C(=O)N[C@@H]([C@@H](C)O)C(=O)N1)[C@@H](C)O)[C@]1(C)O[C@H]1[C@H](C)[C@@H]1C[C@@](O)(NC(=O)O1)[C@H](OC)/C=C/C=C(\C)C2` [Conjugate 43] the same measures were 1160 nM and 2050 nM.
Taken in the same sequence, the figures for `COc1cc2cc(c1Cl)N(C)C(=O)C[C@H](OC(=O)[C@H](C)N(C)C(=O)CCSSCCC(=O)NCCNC(=O)[C@H](Cc1c[nH]c3ccccc13)NC(=O)[C@@H]1CSSC[C@H](NC(=O)[C@H](N)Cc3ccccc3)C(=O)N[C@@H](Cc3ccc(O)cc3)C(=O)N[C@H](Cc3c[nH]c4ccccc34)C(=O)N[C@@H](CCCCN)C(=O)N[C@@H]([C@@H](C)O)C(=O)N1)[C@]1(C)O[C@H]1[C@H](C)[C@@H]1C[C@@](O)(NC(=O)O1)[C@H](OC)/C=C/C=C(\C)C2` [Conjugate 45] were 345 nM and 481 nM.
For the compound `COc1cc2cc(c1Cl)N(C)C(=O)C[C@H](OC(=O)[C@H](C)N(C)C(=O)CCSSCCC(=O)NCCOCCOCCOCCNC(=O)[C@@H](NC(=O)[C@@H]1CSSC[C@H](NC(=O)[C@H](N)Cc3ccccc3)C(=O)N[C@@H](Cc3ccc(O)cc3)CN[C@H](Cc3c[nH]c4ccccc34)C(=O)N[C@@H](CCCCN)C(=O)N[C@@H]([C@@H](C)O)C(=O)N1)[C@@H](C)O)[C@]1(C)O[C@H]1[C@H](C)[C@@H]1C[C@@](O)(NC(=O)O1)[C@H](OC)/C=C/C=C(\C)C2` [Conjugate 47], the IC50 turned out to be 2130 nM under setting [4] and 1270 nM under setting [3].
Regarding `COc1cc2cc(c1Cl)N(C)C(=O)C[C@H](OC(=O)[C@H](C)N(C)C(=O)CCSSCCNC(=O)[C@H](Cc1c[nH]c3ccccc13)NC(=O)[C@@H]1CSSC[C@H](NC(=O)[C@H](N)Cc3ccccc3)C(=O)N[C@@H](Cc3ccc(O)cc3)CN[C@H](Cc3c[nH]c4ccccc34)C(=O)N[C@@H](CCCCN)C(=O)N[C@@H]([C@@H](C)O)C(=O)N1)[C@]1(C)O[C@H]1[C@H](C)[C@@H]1C[C@@](O)(NC(=O)O1)[C@H](OC)/C=C/C=C(\C)C2` [Conjugate 49], the IC50 runs as follows: under setting [4], 69 nM; under setting [3], 243 nM.
As for `COc1cc2cc(c1Cl)N(C)C(=O)C[C@H](OC(=O)[C@H](C)N(C)C(=O)CCSSCCC(=O)NCCNC(=O)[C@@H](NC(=O)[C@@H]1CSSC[C@H](NC(=O)[C@H](N)Cc3c[nH]c4ccccc34)C(=O)N[C@@H](Cc3ccc(O)cc3)C(=O)N[C@H](Cc3c[nH]c4ccccc34)C(=O)N[C@@H](CCCCN)C(=O)N[C@@H]([C@@H](C)O)C(=O)N1)[C@@H](C)O)[C@]1(C)O[C@H]1[C@H](C)[C@@H]1C[C@@](O)(NC(=O)O1)[C@H](OC)/C=C/C=C(\C)C2` [Conjugate 51], the IC50 under setting [4] came out at 124 nM and the IC50 under setting [3] amounted to 238 nM.
